Test: gradient 5% acetonitrile 3 min, to 50% in 2 min, to 85% in 15 min, held 3 min, 100 µL/min
Conditions: column: Zorbax Extend-C18 2.1 x 50 mm; eluents: water / acetonitrile, 0.1% formic acid
In short: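 Retention times come from adduct peaks that were picked computationally and then checked by hand. The standards, pure and pooled in mixtures of ~100 molecules, were run on a Zorbax Extend-C18 column (2.1 × 50 mm, 1.8 μm) at 100 μL/min with water and acetonitrile, each with 0.1% formic acid. Detection was by quadrupole time-of-flight mass spectrometry in positive and negative ionization mode, with a dead volume of 40 μL and a dwell volume of 900 μL.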

RP-LC retention time	Structure (SMILES)
583 s	CCOC(=O)c1c(C)oc2nc(C)nc(N3CCN(Cc4ccccc4)CC3)c12
689 s	O=C(CC1COc2ccccc2NC1=O)NCCc1cccs1 (configuration not stated)
725 s	COc1ccccc1-c1noc(C2CCCN2C(=O)c2ccccn2)n1 (configuration not stated)
823 s	CC1(C)C(=O)N(CC(=O)Nc2ccc3c(c2)OCO3)c2ccccc21
733 s	CCc1ccc(NC(=O)N2CCCC(Cn3cnc4cccnc43)C2)cc1 (configuration not stated)
811 s	Cc1nn(-c2cc(N3CCCCC3)ncn2)c(C)c1CCC(=O)NCc1ccco1
634 s	COc1ccc2[nH]c3c(c2c1)CCNC31CCN(S(=O)(=O)c2cccnc2)CC1
651 s	Cc1ccc(CN2CCn3nnc(CCC(=O)N4CCCC4)c3C2)s1
918 s	Cn1cccc1C(=O)C(=O)NCc1cccc(Br)c1
1060 s	COc1cccc(-n2c(=O)c3sccc3n(Cc3nc(-c4ccc(Cl)c(F)c4)no3)c2=O)c1
801 s	Cc1nnc(-c2ccc3ccn(CC(=O)N4CCN(c5ccccc5)CC4)c3c2)o1
634 s	O=C1c2ccccc2C(=O)c2c(NCCNCCO)ccc(O)c21
947 s	CC1=C(c2ccc(C(C)C)cc2)S(=O)(=O)N=C1N1CCC(C(=O)NCCc2ccco2)CC1
1050 s	O=C(Nc1nc(-c2ccc(F)cc2)cs1)c1c(-c2ccc(F)cc2)nc2n1CCS2(=O)=O
800 s	CCOc1ccc(OCCNC(=O)NC2CCCCC2)cc1
663 s	CCC(C)NC(=O)CC1CCN(C(=O)c2[nH]c(C)c(C(=O)OC)c2C)CC1 (configuration not stated)
860 s	O=c1c(=O)n(-c2ccc(Cl)cc2)ccn1Cc1nc(-c2ccccc2)no1
893 s	O=C(Nc1ccc(OC(F)(F)F)cc1)C1CCN(C(=O)C2Sc3ccccc3NC2=O)CC1 (configuration not stated)
942 s	Cc1ccc(Nc2c(-c3ccc(Cl)cc3)nc3ncccn23)cc1C
787 s	COC(=O)c1c(C)[nH]c(C(=O)N2CCC(CC(=O)NCCC3=CCCCC3)CC2)c1C
721 s	Cc1ccc(S(=O)(=O)N2CCC(CN3CCCCCC3)CC2)cc1Cl
1010 s	CCCOc1cccc(C(=O)N(Cc2ccc(Br)o2)C2CCS(=O)(=O)C2)c1 (configuration not stated)

RP-LC retention time	Structure (SMILES)
1030 s	O=C(C1COc2ccccc2O1)N1CCCC(COCc2ccccc2)C1 (configuration not stated)
1070 s	Cc1nc(-c2cc(S(=O)(=O)Nc3ccc(Br)cc3)c(C)s2)cs1
750 s	Cc1ccc(-c2cn3c(CC(=O)NCc4ccco4)csc3n2)cc1C
1040 s	Cc1ccc(CNC(=O)COc2ccccc2-c2nnc(-c3ccccc3)o2)o1
610 s	CC(C)(C)NC(=O)NC1CCN(C(=O)C2CC2)C1 (configuration not stated)
1020 s	COC1C(=O)N(c2cccc(F)c2)C12CCN(S(=O)(=O)Cc1ccccc1)CC2 (configuration not stated)
831 s	COc1ccc(-c2nnc(SCc3cc(=O)n4c(C)csc4n3)o2)cc1
1050 s	Cc1nc2cc(-c3noc(-c4ccc5c(c4)OCO5)n3)ccc2o1
743 s	COc1ccc(-c2cc3n(n2)CCCN(C(=O)NCc2ccco2)C3)cc1
816 s	c1ccc2c(c1)CCN(Cc1nc(-c3ccc(N4CCCCCC4)nc3)no1)C2
595 s	O=C(CN1CC(c2nc(Cc3ccccc3)no2)C1)NCc1ccc(F)cc1
795 s	COc1cc(-c2nc3nc4ccccc4nc3n2CC2CCCO2)cc(OC)c1OC (configuration not stated)
674 s	Cc1ccc2c(c1)N(CCCC(=O)NCCCN1CC(C)CC(C)C1)C(=O)CO2 (configuration not stated)
597 s	Cc1nnn(C23CC4CC(CC(C(=O)N5CCN(c6ccccn6)CC5)(C4)C2)C3)n1
736 s	Cc1nn(C(C)C(=O)NCCN2CCCCCC2)c(=O)c2c(-n3cccc3)n(-c3ccccc3)nc12 (configuration not stated)
1090 s	COC(=O)c1c(C)c(C(=O)C(C)N(Cc2ccc(F)cc2)C(=O)C2CCCC2)c(C)n1C (configuration not stated)
736 s	COc1ccc(C2CC(=O)N(CC(=O)N3CCOCC3)c3ccccc3S2)cc1OC (configuration not stated)
668 s	CNC(=O)c1cc(-c2ccccc2Cl)n[nH]1
875 s	O=S(=O)(Cc1ccccc1)N1CCC(c2nc(C3CC3)no2)C1 (configuration not stated)
812 s	Cc1ccc(NC(=O)Cn2ncc3c(c2=O)N(CC2CC2)C(=O)CS3)cc1C
683 s	Cc1cc(C(=O)N2CCC3(CCC3O)CC2)c(C)o1 (configuration not stated)
1140 s	COc1cccc(-c2csc(-c3nnn(-c4ccc(C)cc4)c3N)n2)c1

RP-LC retention time	Structure (SMILES)
600 s	Cc1cccc(-c2nc(Cn3ccnc3)no2)c1
1030 s	CC1(C(=O)NCc2ccccc2)CCCN(C(=O)Nc2ccc(Br)cc2F)C1 (configuration not stated)
920 s	COc1ccc(Oc2cc3c(cc2NC(=O)Nc2cccc(OC)c2)n(C)c(=O)n3C)cc1
551 s	CS(=O)(=O)N(Cc1cccnc1)C1CN(C(=O)Nc2ccc3c(c2)OCCO3)C1
668 s	CCOc1cccc(-c2noc(Cn3ccnc3CC)n2)c1
1040 s	Cc1cc(C)n(-c2nc(-c3ccccc3)cc(=O)n2CC(=O)N2CCCc3ccccc32)n1
599 s	CCCOc1nccnc1N1CCC(N(C)C(=O)Cc2cccnc2)C1 (configuration not stated)
1010 s	COc1ccc(-c2ncc3c(n2)CCN(C(=O)c2ccc(C(F)(F)F)cc2)C3)cc1
771 s	Cc1ccc(-c2noc(-c3ccccc3S(=O)(=O)NCCN3CCC(C)CC3)n2)cc1
581 s	COc1cccc(NC(=O)Cn2c(N)nc(C)cc2=O)c1
953 s	Cn1c(=O)c(N2CCC(NC(=O)Nc3ccccc3C(F)(F)F)CC2)nc2ccccc21
607 s	COc1ccc(-c2nc(CC3CCNC3)no2)cc1 (configuration not stated)
697 s	O=C(NCc1cccc(Cl)c1)C1CCN(c2cnc3nccnc3c2)CC1
706 s	COc1ccc(C(=O)NC2CCN(c3cc(-c4ccc(OC)cc4)[nH]n3)C2)cc1 (configuration not stated)
930 s	COC(=O)c1cc(S(=O)(=O)N2CCCC2C(=O)Nc2c(Cl)cc(OC)cc2OC)cn1C (configuration not stated)
915 s	O=C(CN1c2ccc(F)cc2-c2ccccc2S1(=O)=O)N1CCCCC1
1040 s	CCc1ccc(-c2noc(Cn3cnc4c(nnn4-c4ccccc4OC)c3=O)n2)cc1
655 s	O=C(NCCCN1CCOCC1)c1ccc(-c2cnc(NC3CCCCC3)nc2)cc1
718 s	O=C(NCCCn1c(-c2ccncc2)nc2cccnc21)Nc1ccc(Br)cc1F
810 s	CC1(C(=O)NCc2ccccc2)Cn2c(ccc2-c2ccco2)C(=O)N1C1CC1 (configuration not stated)
1010 s	CCOCCCNC(=O)c1cnn2c(C(F)(F)F)cc(-c3ccccc3)nc12

Structure (SMILES)	RP-LC retention time
COc1cccc(S(=O)(=O)N2CCC3(C2)C(=O)Nc2ccc(OC)cc23)c1 (configuration not stated)	816 s
CC(C)NP(=O)(NC(C)C)OP(=O)(NC(C)C)NC(C)C	762 s

Source: the METLIN SMRT retention time set (Domingo-Almenara et al. 2019)
